Laboratory results: the supplement of paper PMC3937590

Experiments:
Test in all cases: -log10 GI50 (growth inhibition 50%) (-log10(M)); higher = more potent growth inhibition
SKBR3 = test system: SKBR3
How it was run: (§1)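 A value carrying a < qualifier equals the top dose tested. Each compound was tested in triplicate on breast cancer cell lines for 72 hours at nine doses in 1:5 serial dilution, using a luminescence read-out against a time-zero plate. Nonlinear least squares fitting of a Gompertz curve gave GI50, the molar concentration causing the set level of growth inhibition, which is reported as its negative logarithm. The logarithm is base 10.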

MDAMB231 = test system: MDAMB231
How it was run: as §1

SUM185PE = test system: SUM185PE
How it was run: as §1

MCF7 = test system: MCF7
How it was run: as §1

CAMA1 = test system: CAMA1
How it was run: as §1

MDAMB453 = test system: MDAMB453
How it was run: as §1

HCC1806 = test system: HCC1806
How it was run: as §1

T47D_KBluc = test system: T47D_KBluc
How it was run: as §1

SUM52PE = test system: SUM52PE
How it was run: as §1

HS578T = test system: HS578T
How it was run: as §1

184B5 = test system: 184B5
How it was run: as §1

HCC1419 = test system: HCC1419
How it was run: as §1

ZR751 = test system: ZR751
How it was run: as §1

T47D = test system: T47D
How it was run: as §1

ZR75B = test system: ZR75B
How it was run: as §1

SUM159PT = test system: SUM159PT
How it was run: as §1

MCF10A = test system: MCF10A
How it was run: as §1

HCC1187 = test system: HCC1187
How it was run: as §1

AU565 = test system: AU565
How it was run: as §1

MDAMB361 = test system: MDAMB361
How it was run: as §1

| SMILES | -log10 GI50 (SKBR3) | -log10 GI50 (MDAMB231) | -log10 GI50 (SUM185PE) | -log10 GI50 (MCF7) | -log10 GI50 (CAMA1) | -log10 GI50 (MDAMB453) | -log10 GI50 (HCC1806) | -log10 GI50 (T47D_KBluc) | -log10 GI50 (SUM52PE) | -log10 GI50 (HS578T) | -log10 GI50 (184B5) | -log10 GI50 (HCC1419) | -log10 GI50 (ZR751) | -log10 GI50 (T47D) | -log10 GI50 (ZR75B) | -log10 GI50 (SUM159PT) | -log10 GI50 (MCF10A) | -log10 GI50 (HCC1187) | -log10 GI50 (AU565) | -log10 GI50 (MDAMB361) |
| --- | --- | --- | --- | --- | --- | --- | --- | --- | --- | --- | --- | --- | --- | --- | --- | --- | --- | --- | --- | --- |
| CC(=O)NCC(=O)N1[C@@H]2CC[C@H]1c1ccc(Nc3ncc(C(F)(F)F)c(NC4CCC4)n3)cc12 | 5.38 | 5.53 | 6.63 | 5.71 | 5.44 | 5.62 | 5.55 | 5.4 | 7.57 | 6.05 | 5.48 | 5.19 | 4.99 | 5.14 | 5.94 | 6.37 | 6.36 | 7.1 | 5.57 | 5.23 |
| CCC[C@H](N[C@H]1CCc2cc(F)cc(F)c2C1)C(=O)Nc1cn(C(C)(C)CNCC(C)(C)C)cn1 | 4.91 | < 4.18 | 4.84 | 4.49 | < 4.18 | 4.59 | < 4.18 | < 4.18 | 5.24 | 4.51 | 4.86 | < 4.18 | 4.72 | 4.91 | < 4.18 | < 4.18 | < 4.18 | 5.48 | 4.98 | 4.41 |
| CNC(=O)c1c(F)cccc1Nc1nc(Nc2cc3c(cc2OC)CCN3C(=O)CN(C)C)nc2[nH]ccc12 | 4.99 | 5.32 | 5.48 | 6 | 5.08 | 4.96 | 4.09 | 5.13 | 5.68 | 4.91 | 6.32 | 5.19 | 5.17 | 5.02 | 5.01 | 5.47 | 5.45 | 5.65 | 5.63 | 4.84 |
| COc1ccc(-c2cc3c(C)nc(N)nc3n([C@H]3CC[C@H](OCCO)CC3)c2=O)cn1 | 7.33 | 6.35 | 6.77 | 7.39 | 6.74 | 6.88 | 6.43 | 7.25 | 7.26 | 5.26 | 6.65 | 7.58 | 7.62 | 7.27 | 7.28 | 6.73 | 6.69 | 8.01 | 7.51 | 7.36 |
| COc1cccc(-c2cc(=O)c3ccccc3o2)c1N | 4.73 | < 4.3 | 4.88 | < 4.3 | 4.32 | < 4.3 | < 4.3 | < 4.3 | 4.92 | < 4.3 | < 4.3 | < 4 | < 4.3 | < 4.3 | 4.59 | 4.03 | < 4.3 | 5.39 | 5.12 | 4.3 |
| C[C@@H](Oc1cc(-c2cnn(C3CCNCC3)c2)cnc1N)c1c(Cl)ccc(F)c1Cl | 5.14 | 5.47 | 5.33 | 5.91 | 5.23 | 5.59 | 6.11 | 5.31 | 6.28 | 5.85 | 5.42 | 4.73 | 5.44 | 5.34 | 5.64 | 5.79 | 5.59 | 7.24 | 5.55 | 5.44 |
| O=C1C(Cl)=C(NCCN2CCOCC2)C(=O)c2ncccc21 | 5.86 | 5.14 | 6.5 | 5.43 | 5.59 | 5.26 | 5.61 | 5.38 | 5.62 | 5.7 | 5.57 | 5.72 | 5.76 | 5.19 | 5.26 | 5.76 | 5.65 | 5.73 | 5.81 | 5.27 |
| Cn1cnc2c(F)c(Nc3ccc(Br)cc3Cl)c(C(=O)NOCCO)cc21 [AZD6244] | < 4.3 | < 4.3 | < 4.3 | < 4.3 | < 4.3 | < 4.3 | < 4.3 | < 4.3 | 5.01 | 4.75 | 6.9 | 4.75 | 4.75 | < 4.3 | < 4.3 | 6.66 | 6.71 | < 4.3 | < 4.3 | < 4.3 |
| O=c1[nH]c2ccccc2n1C1CCN(Cc2ccc(-c3[nH]c4cc5ncnc5cc4nc3-c3ccccc3)cc2)CC1 [Akt inhibitor VIII] | 5.68 | 4.82 | 5.95 | 5.77 | 5.17 | 5.73 | 5.05 | 5.31 | 5.85 | 4.89 | 5.56 | 6.03 | 6.13 | 5.78 | 5.93 | 5.12 | 5.34 | 5.43 | 5.61 | 6.06 |
| Cn1c(=O)n(-c2ccc(C(C)(C)C#N)cc2)c2c3cc(-c4cnc5ccccc5c4)ccc3ncc21 [BEZ235] | < 4.48 | < 4.48 | < 4.48 | < 4.48 | 6.67 | 6.92 | < 4.48 | < 4.48 | 5.51 | < 4.48 |  | 7.2 | 5.74 | 6.55 | 6.85 | 7.44 | 7.26 | < 4.48 | 6.59 | 6.68 |
| CN(C)C/C=C/C(=O)Nc1cc2c(Nc3ccc(F)c(Cl)c3)ncnc2cc1O[C@H]1CCOC1 [BIBW2992] | 7.88 | 5.51 | 5.46 |  | 5.65 | 7.04 | 6.27 | 5.45 | 5.47 |  | 7.22 | 8.53 | 5.63 |  | 5.52 | 5.59 | 7.49 |  |  | 8.21 |
| CC(C)C[C@H](NC(=O)[C@H](Cc1ccccc1)NC(=O)c1cnccn1)B(O)O [Bortezomib] | 7.88 | 7.66 | 8.27 | 7.75 | 7.9 | 8.07 | 7.59 | 6.52 | 8.28 | 7.81 | 8.33 | 8.86 | 7.55 | 8.02 | 7.53 | 8.14 | 6.64 | 8.26 | 8.32 | 5.54 |
| CC(=O)O[C@@]12CO[C@@H]1C[C@H](O)[C@@]1(C)C(=O)[C@H](O)C3=C(C)[C@@H](OC(=O)[C@H](O)[C@@H](NC(=O)OC(C)(C)C)c4ccccc4)C[C@@](O)([C@@H](OC(=O)c4ccccc4)[C@H]21)C3(C)C [Docetaxel] | 8 | 8.66 | 6.4 | 7.91 |  | 8.32 | 8.62 | 7.93 | 8.67 | 8.76 | 8.39 | 7.8 | 7.74 | 8.51 | 8.03 | 8.77 | 8.63 | 8.61 | 8.3 | 7.92 |
| C#Cc1cccc(Nc2ncnc3cc(OCCOC)c(OCCOC)cc23)c1 [Erlotinib] | 4.8 | 4.33 | < 4.18 | < 4.18 | < 4.18 | 4.77 | 5.37 | < 4.18 | 4.98 | < 4.18 | 6.32 | 5.2 | < 4.18 | < 4.18 | < 4.18 | 4.93 | 5.97 | 5.12 | 4.93 | < 4.18 |
| O=C1c2ccccc2-[n+]2ccc3c([nH]c4ccccc43)c21 [Fascaplysin] | 6.65 | 6.6 | 7.26 | 6.72 | 6.61 | 7.06 | 6.59 | 7.31 | 6.74 | 5.98 | 6.53 | 6.58 | 6.45 | 6.34 | 6.39 | 6.37 | 6.43 | 7.83 | 6.95 | 7.09 |
| CC(C(C)N1CC(=O)NC(=O)C1)N1CC(=O)NC(=O)C1 (stereo unspecified) [ICRF-193] | 5.22 |  | < 4.3 | < 4.48 | < 4.3 | 4.88 | < 4.3 | < 4.48 | 5.6 | 5.63 | < 4.48 | < 4.3 | 6.07 | < 4.48 | 6.6 | 6.53 | 7.07 | 6.1 | 6.14 | 4.39 |
| Cc1ccc(NC(=O)c2ccc(CN3CCN(C)CC3)cc2)cc1Nc1nccc(-c2cccnc2)n1 [Imatinib] | 4.63 | 4.82 | 4.91 | 4.82 | 4.71 | 4.95 | 5.15 | 4.67 | 4.65 | 4.1 | 4.63 | 4.74 | 4.56 | 4.79 | 4.63 | 4.75 | 4.36 | 4.6 | 4.72 | 4.57 |
| Cc1ccc(C(=O)N(CCCN)[C@@H](c2nc3cc(Cl)ccc3c(=O)n2Cc2ccccc2)C(C)C)cc1 [Ispinesib] | 7.49 | 7.5 | 6.96 | 7.42 | 7.51 | 7.37 | 7.55 | 6.79 | 7.54 | 6.51 | 6.05 | 5.18 | 7.05 | 7.08 | 6.89 | 7.33 | 7.4 | 7.58 | 7.65 | 7.46 |
| C/C(=C\c1csc(C)n1)[C@@H]1C[C@@H]2O[C@]2(C)CCC[C@H](C)[C@H](O)[C@@H](C)C(=O)C(C)(C)[C@@H](O)CC(=O)N1 [Ixabepilone] | 7.99 | 9.34 | 8.07 | 9.44 | 9.02 | 8.34 | 8.36 | 7.61 | 9.53 | 8.62 | 6.76 | 4.93 | 6.68 | 8.26 | 6.95 | 8.16 | 8.1 | 8.66 | 8.42 | 8.64 |
| Cc1[nH]c2ccccc2c1CCNCc1ccc(/C=C/C(=O)NO)cc1 [LBH589] | 7.25 | 6.68 | 7.11 | 7.1 | 7.3 | 7.31 | 6.82 | 6.88 | 6.83 | 6.55 | 6.99 | 7.23 | 6.8 | 6.82 | 7.08 | 6.88 | 6.84 | 6.76 | 6.98 | 7.46 |
| NS(=O)(=O)c1ccc(Nc2nc(OCC3CCCCC3)c3[nH]cnc3n2)cc1 [NU6102] | 4.51 |  | 5.02 | 4.63 | 4.79 | 4.91 | 4.81 | 4.43 | 5.27 | 4.69 | 5.39 | 4.54 | 4.82 | 4.82 | 4.85 | 4.9 | 5.32 | 5.11 | 4.64 | 4.58 |
| CO[C@H]1C[C@@H]2CC[C@@H](C)[C@@](O)(O2)C(=O)C(=O)N2CCCC[C@H]2C(=O)O[C@H]([C@H](C)C[C@@H]2CC[C@@H](OC(=O)C(C)(CO)CO)[C@H](OC)C2)CC(=O)[C@H](C)/C=C(\C)[C@@H](O)[C@@H](OC)C(=O)[C@H](C)C[C@H](C)/C=C/C=C/C=C/1C [Temsirolimus] | 7.27 |  | < 3.88 | 5.8 |  |  | 4.69 | 4.56 | 8.82 | 4.66 | 5.29 | 7.27 | < 3.88 | 5.85 | 6.97 |  | 6.38 | 6.1 |  | 6.56 |
